Test system: over active bladder
Conditions: oral, 5 mg pills three times per day
Procedure: Their doctor prescribes an anti-cholinergic agent, oxybutynin chloride, taken orally three times per day in 5 mg pills.
Alternatively, their doctor prescribes an oxybutynin urethral suppository of the invention. Before leaving home, they open the individually wrapped suppository, grasping it by the handle; they insert the meltable portion, containing up to 5 mg of oxybutynin chloride, into their urethra. […] If necessary, the person can remove the remaining portions of the suppository and insert a new suppository to prevent uncontrolled voiding episodes.

CCN(CC)CC#CCOC(=O)C(O)(c1ccccc1)C1CCCCC1 (centres unmarked) [oxybutynin chloride]
effect on uncontrolled voiding episodes (patient one): eliminates the uncontrolled voiding episodes
side effects (patient two): severe dry mouth and dizziness
